Reference: patent US20210060121A1, “NOVEL ANTIBIOTICS AND METHODS OF USING THEM” (priority 2018, published 2021)
Converted amounts (≈) assume the structure as drawn.

Legend:
[1] = test system: Staphylococcus aureus strain ATCC43300; experiment: Wax worm survival model infected with S. aureus; type: in vivo, Galleria mellonella
Source text: FIG. 2. In vivo antibacterial activities of certain antibiotics of the invention. Efficacy of teixobactin and certain antibiotics of the invention for treating infections caused by Staphylococcus aureus strain ATCC43300 was studied in wax worm larvae (Galleria mellonella) model. PBS, control group without infection and treated with PBS: All other groups (20 each group) were infected with 10^7 CFU of S. aureus strain ATCC43300 followed by no treatment or treatment with one dose of vancomycin at 10 mg/kg (A-10) or 50 mg/kg (A-50), teixobactin at 10 mg/kg (B-10) or 50 mg/kg (B-50), or one dose of the representative analogue, Chg10-teixobactin, at 10 mg/kg (C-10) or 50 mg/kg (C-50).
Exemplary in vivo antibacterial activity: Chg10-Teixobactin was studied in wax worm survival models infected with S. aureus strain ATCC43300. Teixobactin were used as controls. […] At a dose of 50 mg/kg, Chg10-Teixobactin protected 100% infected wax worms (See FIG. 2).

SA (ATCC29213) = type: cell-based, Staphylococcus aureus
Procedure: (§1) Susceptibility to teixobactin and its analogues was tested on the selected Gram-positive strains using Tecan Freedom EVO high-throughput automated platform, following the standard broth dilution method as described by the Clinical and Laboratory Standards Institute ^3. MICS were determined according to CLSI guideline.

MRSA(SA11I4) = type: cell-based, Staphylococcus aureus
Procedure: as §1

MRSA and SA strains = experiment: MIC, summary over S. aureus strains; type: cell-based, Staphylococcus aureus
Procedure: as §1

Enterococcus ET60 = type: cell-based
Procedure: as §1

Enterococcus ATCCET = type: cell-based
Procedure: as §1

[2] = test system: Streptococcus faecalis SF; type: cell-based
Procedure: as §1

Enterococcus ET6 = type: cell-based
Procedure: as §1

MRSA SA88 = type: cell-based, Staphylococcus aureus
Procedure: as §1

MRSA SA86 = type: cell-based, Staphylococcus aureus
Procedure: as §1

MRSA SA11 = type: cell-based, Staphylococcus aureus
Procedure: as §1

[3] = test system: Streptococcus faecalis and Enterococcus strains; experiment: MIC, text summary over Streptococcus faecalis and Enterococcus; type: cell-based; conditions: against Streptococcus faecalis and Enterococcus strains; Table 2
Procedure: as §1

CC[C@@H](C)[C@@H](NC(=O)[C@@H](CCC(N)=O)NC(=O)[C@H](CO)NC(=O)[C@@H](NC(=O)[C@@H](Cc1ccccc1)NC)[C@@H](C)CC)C(=O)N[C@H](C(=O)N[C@@H](CO)C(=O)N[C@H]1C(=O)N[C@@H](C)C(=O)N[C@@H](C2CCCCC2)C(=O)N[C@@H]([C@@H](C)CC)C(=O)O[C@H]1C)[C@@H](C)CC [Chg10-teixobactin]
Infected wax worms protected ([1]; one dose of 50 mg/kg, wax worms infected with S. aureus ATCC43300): 100% | In vivo antibacterial activities, teixobactin as control ([1]; one dose treatment, wax worm survival model, S. aureus ATCC43300): improved antibacterial activities | Minimum inhibitory concentration (MIC) SA (ATCC29213) (SA (ATCC29213)): 0.25 µg/mL (≈ 0.204 µM) | Minimum inhibitory concentration (MIC) MRSA(SA11I4) (MRSA(SA11I4)): 1 µg/mL (≈ 0.815 µM) | Antibacterial activity compared with teixobactin (MRSA and SA strains; MRSA clinical isolate and MSSA ATCC29213, from MICs): two times higher activities than teixobactin

CC[C@@H](C)[C@@H](NC(=O)[C@@H](CCC(N)=O)NC(=O)[C@H](CCCNC(=N)N)NC(=O)[C@@H](NC(=O)[C@@H](Cc1ccccc1)NC)[C@@H](C)CC)C(=O)N[C@H](C(=O)N[C@@H](CO)C(=O)N[C@H]1C(=O)N[C@@H](C)C(=O)N[C@@H](C2CCCCC2)C(=O)N[C@@H]([C@@H](C)CC)C(=O)O[C@H]1C)[C@@H](C)CC [T87]
Minimum inhibitory concentration (MIC) Enterococcus ET60 (Enterococcus ET60): 0.5 µg/mL (≈ 0.386 µM) | Minimum inhibitory concentration (MIC) Enterococcus ATCCET (Enterococcus ATCCET): 1 µg/mL (≈ 0.771 µM) | Minimum inhibitory concentration (MIC) Streptococcus faecalis SF [2]: 1 µg/mL (≈ 0.771 µM) | Minimum inhibitory concentration (MIC) Enterococcus ET6 (Enterococcus ET6): 1 µg/mL (≈ 0.771 µM) | Minimum inhibitory concentration (MIC) SA (ATCC29213) (SA (ATCC29213)): 1 µg/mL (≈ 0.771 µM) | Minimum inhibitory concentration (MIC) MRSA(SA11I4) (MRSA(SA11I4)): 2 µg/mL (≈ 1.54 µM) | Minimum inhibitory concentration (MIC) MRSA SA88 (MRSA SA88): 1 µg/mL (≈ 0.771 µM) | Minimum inhibitory concentration (MIC) MRSA SA86 (MRSA SA86): 2 µg/mL (≈ 1.54 µM) | Minimum inhibitory concentration (MIC) MRSA SA11 (MRSA SA11): 0.5 µg/mL (≈ 0.386 µM)

CC[C@@H](C)[C@@H](NC(=O)[C@@H](CCC(N)=O)NC(=O)[C@@H](NC(=O)[C@@H](NC(=O)[C@@H](Cc1ccccc1)NC)[C@@H](C)CC)[C@@H](C)CC)C(=O)N[C@H](C(=O)N[C@@H](CO)C(=O)N[C@H]1C(=O)N[C@@H](C)C(=O)N[C@@H](C2CCCCC2)C(=O)N[C@@H]([C@@H](C)CC)C(=O)O[C@H]1C)[C@@H](C)CC [T88]
Minimum inhibitory concentration (MIC) Enterococcus ET60 (Enterococcus ET60): 1 µg/mL (≈ 0.798 µM) | Minimum inhibitory concentration (MIC) Enterococcus ATCCET (Enterococcus ATCCET): 2 µg/mL (≈ 1.6 µM) | Minimum inhibitory concentration (MIC) Streptococcus faecalis SF [2]: 1 µg/mL (≈ 0.798 µM) | Minimum inhibitory concentration (MIC) Enterococcus ET6 (Enterococcus ET6): 2 µg/mL (≈ 1.6 µM) | Activities compared with teixobactin [3]: better than teixobactin | Minimum inhibitory concentration (MIC) SA (ATCC29213) (SA (ATCC29213)): 4 µg/mL (≈ 3.19 µM) | Minimum inhibitory concentration (MIC) MRSA(SA11I4) (MRSA(SA11I4)): 8 µg/mL (≈ 6.38 µM) | Minimum inhibitory concentration (MIC) MRSA SA88 (MRSA SA88): 4 µg/mL (≈ 3.19 µM) | Minimum inhibitory concentration (MIC) MRSA SA86 (MRSA SA86): 4 µg/mL (≈ 3.19 µM) | Minimum inhibitory concentration (MIC) MRSA SA11 (MRSA SA11): 4 µg/mL (≈ 3.19 µM) | Activities, times lower than teixobactin (MRSA and SA strains; against MRSA and SA strains, Table 2): about 4 times
